The results in this text go back to patent publication US20260191858A1, “COMBINATION THERAPIES” (Kallyope, Inc., priority 2022, published 2026).

Structures are written as SMILES. Some results are limits rather than exact numbers.

The term EC50 denotes the concentration needed to bring the measured effect to its halfway point. Lower therefore signals a more potent agent.

The first assay deals with T1, human GPR119 (hGPR119) (Homo sapiens, UniProt Q8TDV5).
T1 construct: expressed in transfected cells; host or cells: CHO-K1
T1 sequence (Q8TDV5 1-335): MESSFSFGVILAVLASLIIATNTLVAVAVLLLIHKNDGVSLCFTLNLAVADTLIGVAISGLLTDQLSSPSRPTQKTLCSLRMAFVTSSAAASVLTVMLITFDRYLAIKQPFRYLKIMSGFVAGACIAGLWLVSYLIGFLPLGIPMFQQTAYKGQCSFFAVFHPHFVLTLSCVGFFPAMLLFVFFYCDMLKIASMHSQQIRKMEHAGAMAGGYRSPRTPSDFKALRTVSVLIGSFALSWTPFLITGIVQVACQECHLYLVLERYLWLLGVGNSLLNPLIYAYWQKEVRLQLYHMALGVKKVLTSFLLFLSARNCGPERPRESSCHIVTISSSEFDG
In words: cAMP accumulation assay in CHO-K1 cells stably expressing hGPR119. Type of assay: cell-based. The note with it: cAMP HTRF, 60 minutes. The essentials: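 Assay-ready frozen CHO-K1 cells stably expressing hGPR119, ~10,000 cells/well, were exposed to compounds for 60 min at 37 °C in stimulation buffer with Tween 80. cAMP was measured by HTRF (665/620 nm ratio) and normalized to Max/Min controls as % activity. EC50 and Max activity came from a 4-parameter fit.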
On the technique in general: cAMP levels reflect the balance of adenylyl cyclase and phosphodiesterase activity.
`CCc1cnc(N2CCC(CCCOc3ccc(CC(=O)N4CC(CNC(CO)(CO)CO)C4)c(F)c3)CC2)nc1` [Compound A34, 1-(3-(((1,3-dihydroxy-2-(hydroxymethyl)propan-2-yl)amino)methyl)azetidin-1-yl)-2-(4-(3-(1-(5-ethylpyrimidin-2-yl)piperidin-4-yl)propoxy)-2-fluorophenyl)ethan-1-one] yielded an EC50 of no more than 100 nM.

`O=C(Cc1ccc(OCCCC2CCN(c3ncc(Cl)cn3)CC2)cc1F)N1CC(CN[C@@H]2C[C@H](O)[C@@H](O)[C@H]2O)C1` (racemic) [Compound A21, 2-[4-[3-[1-(5-chloropyrimidin-2-yl)-4-piperidyl]propoxy]-2-fluoro-phenyl]-1-[3-[[[rac-(1R,2S,3R,4S)-2,3,4-trihydroxycyclopentyl]amino]methyl]azetidin-1-yl]ethanone] yielded an EC50 of 100 to 1000 nM.

On to `O=C(NCCCCCS(=O)(=O)O)C1CN(C(=O)Cc2ccc(OCCCC3CCN(c4ncc(Cl)cn4)CC3)cc2F)C1` [Compound A66, 5-[[1-[2-[4-[3-[1-(5-chloropyrimidin-2-yl)-4-piperidyl]propoxy]-2-fluoro-phenyl]acetyl]azetidine-3-carbonyl]amino]pentane-1-sulfonic acid], for which the EC50 lay within 100 to 1000 nM.

As to `O=C(CC1CN(C(=O)Cc2ccc(OCCCC3CCN(c4ncc(Cl)cn4)CC3)cc2F)C1)NCCS(=O)(=O)O` [Compound A68, 2-[[2-[1-[2-[4-[3-[1-(5-chloropyrimidin-2-yl)-4-piperidyl]propoxy]-2-fluoro-phenyl]acetyl]azetidin-3-yl]acetyl]amino]ethanesulfonic acid], the EC50 lay within 100 to 1000 nM.

`O=C(Cc1ccc(OCCCC2CCN(c3ncc(Cl)cn3)CC2)cc1F)N1CC(CNC[C@@H](O)[C@H](O)[C@H](O)CO)C1` [Compound A62, 2-[4-[3-[1-(5-chloropyrimidin-2-yl)-4-piperidyl]propoxy]-2-fluoro-phenyl]-1-[3-[[[(2R,3S,4R)-2,3,4,5-tetrahydroxypentyl]amino]methyl]azetidin-1-yl]ethanone] showed an EC50 of no more than 100 nM.

The molecule `O=C(Cc1ccc(OCCCC2CCN(c3ncc(Cl)cn3)CC2)cc1F)N1CC(CNCC(CO)CO)C1` [Compound A17] yielded an EC50 of no more than 100 nM.

Consider `O=C(Cc1ccc(OCCCC2CCN(c3ncc(Cl)cn3)CC2)cc1F)N1CC(CCNC[C@H](O)[C@@H](O)[C@H](O)[C@H](O)CO)C1` [Compound A31, 2-[4-[3-[1-(5-chloropyrimidin-2-yl)-4-piperidyl]propoxy]-2-fluoro-phenyl]-1-[3-[2-[[(2S,3R,4R,5R)-2,3,4,5,6-pentahydroxyhexyl]amino]ethyl]azetidin-1-yl]ethanone], for which the concentration for a half-maximal effect (EC50) lay within 100 to 1000 nM.

As to `CCCc1cnc(N2CCC(CCCOc3ccc(CC(=O)N4CC(CNC(CO)(CO)CO)C4)c(F)c3)CC2)nc1` [Compound A42, 1-(3-(((1,3-dihydroxy-2-(hydroxymethyl)propan-2-yl)amino)methyl)azetidin-1-yl)-2-(2-fluoro-4-(3-(1-(5-propylpyrimidin-2-yl)piperidin-4-yl)propoxy)phenyl)ethan-1-one], the EC50 was no more than 100 nM.

Regarding `COCc1cnc(N2CCC(CCCOc3ccc(CC(=O)N4CC(CNC[C@H](O)[C@@H](O)[C@H](O)[C@H](O)CO)C4)c(F)c3)CC2)nc1` [Compound A53, 2-[2-fluoro-4-[3-[1-[5-(methoxymethyl)pyrimidin-2-yl]-4-piperidyl]propoxy]phenyl]-1-[3-[[[(2S,3R,4R,5R)-2,3,4,5,6-pentahydroxyhexyl]amino]methyl]azetidin-1-yl]ethanone], the concentration giving a half-maximal response (EC50) was in the range of 100 to 1000 nM.

`O=C(Cc1ccc(OCCCC2CCN(c3ncc(Cl)cn3)CC2)cc1F)N1CC(CCNC[C@H](O)[C@H](O)[C@H](O)CO)C1` [Compound A59, 2-[4-[3-[1-(5-chloropyrimidin-2-yl)-4-piperidyl]propoxy]-2-fluoro-phenyl]-1-[3-[2-[[(2S,3S,4R)-2,3,4,5-tetrahydroxypentyl]amino]ethyl]azetidin-1-yl]ethanone] came in with an EC50 of no more than 100 nM.

`CCCc1cnc(N2CCC(CCCOc3cc(F)c(CC(=O)N4CC(CNCCNC(=O)NC(CO)(CO)CO)C4)c(F)c3)CC2)nc1` [Compound A47, 1-(2-(((1-(2-(2,6-difluoro-4-(3-(1-(5-propylpyrimidin-2-yl)piperidin-4-yl)propoxy)phenyl)acetyl)azetidin-3-yl)methyl)amino)ethyl)-3-(1,3-dihydroxy-2-(hydroxymethyl)propan-2-yl)urea]: the EC50 is 100 to 1000 nM.

For the molecule `CCOc1cnc(N2CCC(CCCOc3cc(F)c(CC(=O)N4CC(CNC[C@H](O)[C@@H](O)[C@H](O)[C@H](O)CO)C4)c(F)c3)CC2)nc1` [Compound A58, 2-[4-[3-[1-(5-ethoxypyrimidin-2-yl)-4-piperidyl]propoxy]-2,6-difluoro-phenyl]-1-[3-[[[(2S,3R,4R,5R)-2,3,4,5,6-pentahydroxyhexyl]amino]methyl]azetidin-1-yl]ethanone], the EC50 is no more than 100 nM.

The molecule `CCc1cnc(N2CCC(CCCOc3ccc(CC(=O)N4CC(CNCC(O)(CO)CO)C4)c(F)c3)CC2)nc1` [Compound A33, 1-(3-(((2,3-dihydroxy-2-(hydroxymethyl)propyl)amino)methyl)azetidin-1-yl)-2-(4-(3-(1-(5-ethylpyrimidin-2-yl)piperidin-4-yl)propoxy)-2-fluorophenyl)ethan-1-one] gave an EC50 of no more than 100 nM.

In turn, `O=C(NCCCCCCS(=O)(=O)O)C1CN(C(=O)Cc2ccc(OCCCC3CCN(c4ncc(Cl)cn4)CC3)cc2F)C1` [Compound A67, 6-[[1-[2-[4-[3-[1-(5-chloropyrimidin-2-yl)-4-piperidyl]propoxy]-2-fluoro-phenyl]acetyl]azetidine-3-carbonyl]amino]hexane-1-sulfonic acid] returned a concentration giving a half-maximal response (EC50) of 100 to 1000 nM.

`O=C(Cc1ccc(OCCCC2CCN(c3ncc(Cl)cn3)CC2)cc1F)N1CC(CNC[C@H](O)[C@H](O)[C@H](O)CO)C1` [Compound A60, 2-[4-[3-[1-(5-chloropyrimidin-2-yl)-4-piperidyl]propoxy]-2-fluoro-phenyl]-1-[3-[[[(2S,3S,4R)-2,3,4,5-tetrahydroxypentyl]amino]methyl]azetidin-1-yl]ethanone] displayed an EC50 of no more than 100 nM.

For the next assay, the target named is T2, human GPR40 (Homo sapiens, UniProt O14842).
T2 construct: host or cells: CHO-K1
T2 sequence (O14842 whole entry): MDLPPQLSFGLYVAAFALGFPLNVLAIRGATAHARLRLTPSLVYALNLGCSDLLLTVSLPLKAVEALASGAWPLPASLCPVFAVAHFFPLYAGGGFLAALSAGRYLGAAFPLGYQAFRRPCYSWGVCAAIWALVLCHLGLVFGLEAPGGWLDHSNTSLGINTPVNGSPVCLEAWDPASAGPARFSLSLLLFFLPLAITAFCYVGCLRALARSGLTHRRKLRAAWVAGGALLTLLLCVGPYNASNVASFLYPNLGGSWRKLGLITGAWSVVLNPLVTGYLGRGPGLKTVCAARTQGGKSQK
The experiment in a line: Inositol phosphate accumulation assay in CHO-K1 cells expressing human GPR40. It counts as cell-based. The settings on record: CHO-K1 human GPR40, IP1 HTRF, 90 min. The method, then:
CHO-K1 cells expressing human GPR40 were purchased from DiscoverX (95-1005C2). HEK293 cells expressing mouse FFAR1 were prepared using a mouse FFAR1 carrying plasmid purchased from OriGene Technologies (MR222997). The cells were transfected using Lipofectamine 2000 using manufacturer instructions and stable cell line was established from a single cell using geneticine selection. Assay ready frozen (ARF) cells were prepared and used throughout the study.
The assay was performed in a 384-well plate format using IP1 assay kit from Cis-Bio. ARF cells expressing FFAR1 (mouse and human) were thawed, washed and then plated in the appropriate medium (F12 based medium for CHO hFFAR1 and DMEM based medium for HEK293 mFFAR1—both were supplemented with 10% FBS and penicillin/streptomycin). 20 μL of 3.5×10^5 cells/mL were plated on a Poly D-Lysine coated 384-well white plate. The cells were then incubated for 16 hr at 37° C./5% CO2. After 16 hr the medium was removed and 15 μL of stimulation buffer containing the test compounds was added to the cells. The plates were then incubated for 90 min at 37° C./5% CO2. 5 μL of detection buffer (prepared as described in the IP-one kit) was added to each well and the plates were incubated at RT for 1 hr.
[…] was measured using ClarioSTAR plate reader, calculating the ratio between emissions at 665 nm and 620 nm (HTRF ratio). HTRF ratio for positive (Max) and negative (Min) controls were used to normalize HTRF data and generate values for % activity. EC50 and Max activity values were determined using a standard 4-parameter fit.
(In general: Time-resolved FRET reads energy transfer from a long-lived donor to a nearby acceptor.)
On to `COc1ccc(CCCC(C)(C)C)c(N2CCC(COc3cccc([C@@H](C)CP(C)(=O)O)c3)CC2)c1` [Compound B11, ((R)-2-(3-((1-(2-(4,4-dimethylpentyl)-5-methoxyphenyl)piperidin-4-yl)methoxy)phenyl)propyl)(methyl) phosphinic acid], for which the EC50 fell in the range of 50 to 250 nM.

Molecule `COc1ccc(CCCC(C)(C)C)c(N2CCC(COc3cc([C@@H](C)CP(C)(=O)O)ccn3)CC2)c1` [Compound B8, ((R)-2-(2-((1-(2-(4,4-dimethylpentyl)-5-methoxyphenyl)piperidin-4-yl)methoxy)pyridin-4-yl)propyl)(methyl)phosphinic acid] returned an EC50 of no more than 50 nM.

With `COc1ccc(F)c([C@H]2CC[C@H](COc3cccc([C@@H](C[P@@](C)(=O)O)C4CC4)c3)CC2)c1` (single isomer, unassigned) [Compound B4], the EC50 is 50 to 250 nM.

`COc1ccc(F)c([C@H]2CC[C@H](COc3cccc([C@H](C[P@@](C)(=O)O)C4CC4)c3)CC2)c1` (single isomer, unassigned) [Compound B3] came in with an EC50 of no more than 50 nM.

The molecule `CC[C@@H](Cc1cccc(OCC2CCN(c3cc(OC)ccc3CCCC(C)(C)C)CC2)c1)P(C)(=O)O` [Compound B12, ((S)-1-(3-((1-(2-(4,4-dimethylpentyl)-5-methoxyphenyl)piperidin-4-yl)methoxy)phenyl)butan-2-yl)(methyl)phosphinic acid] showed an EC50 of 250 to 1000 nM.

For `CC[C@H](Cc1cccc(OCC2CCN(c3cc(OC)ccc3CCCC(C)(C)C)CC2)c1)P(C)(=O)O` [Compound B13, ((R)-1-(3-((1-(2-(4,4-dimethylpentyl)-5-methoxyphenyl)piperidin-4-yl)methoxy)phenyl)butan-2-yl)(methyl)phosphinic acid], the EC50 was in the range of 250 to 1000 nM.

Turning to `COc1ccc(CCCC(C)(C)C)c(N2CCC(COc3cc([C@H](C)CP(C)(=O)O)ccn3)CC2)c1` [Compound B9, ((S)-2-(2-((1-(2-(4,4-dimethylpentyl)-5-methoxyphenyl)piperidin-4-yl)methoxy)pyridin-4-yl)propyl)(methyl)phosphinic acid], the half-maximal effective concentration (EC50) is 250 to 1000 nM.
